Experimental data published in patent US20210395239A1 (Hoffmann-La Roche Inc., priority 2018, published 2021).
pIC50: −log10 of the molar value.

molecular target: T1, human TLR7 (Homo sapiens, UniProt Q9NYK1); assay: HEK293-Blue-hTLR-7 cells assay (SEAP reporter, R848 stimulation); format: cell-based; conditions: HEK293-Blue-hTLR7 cells, R848, 20 hrs; read-out: HEK/hTLR7 IC50
T1 construct: host or cells: HEK293 (HEK-Blue hTLR7)
T1 sequence (Q9NYK1 27-1049): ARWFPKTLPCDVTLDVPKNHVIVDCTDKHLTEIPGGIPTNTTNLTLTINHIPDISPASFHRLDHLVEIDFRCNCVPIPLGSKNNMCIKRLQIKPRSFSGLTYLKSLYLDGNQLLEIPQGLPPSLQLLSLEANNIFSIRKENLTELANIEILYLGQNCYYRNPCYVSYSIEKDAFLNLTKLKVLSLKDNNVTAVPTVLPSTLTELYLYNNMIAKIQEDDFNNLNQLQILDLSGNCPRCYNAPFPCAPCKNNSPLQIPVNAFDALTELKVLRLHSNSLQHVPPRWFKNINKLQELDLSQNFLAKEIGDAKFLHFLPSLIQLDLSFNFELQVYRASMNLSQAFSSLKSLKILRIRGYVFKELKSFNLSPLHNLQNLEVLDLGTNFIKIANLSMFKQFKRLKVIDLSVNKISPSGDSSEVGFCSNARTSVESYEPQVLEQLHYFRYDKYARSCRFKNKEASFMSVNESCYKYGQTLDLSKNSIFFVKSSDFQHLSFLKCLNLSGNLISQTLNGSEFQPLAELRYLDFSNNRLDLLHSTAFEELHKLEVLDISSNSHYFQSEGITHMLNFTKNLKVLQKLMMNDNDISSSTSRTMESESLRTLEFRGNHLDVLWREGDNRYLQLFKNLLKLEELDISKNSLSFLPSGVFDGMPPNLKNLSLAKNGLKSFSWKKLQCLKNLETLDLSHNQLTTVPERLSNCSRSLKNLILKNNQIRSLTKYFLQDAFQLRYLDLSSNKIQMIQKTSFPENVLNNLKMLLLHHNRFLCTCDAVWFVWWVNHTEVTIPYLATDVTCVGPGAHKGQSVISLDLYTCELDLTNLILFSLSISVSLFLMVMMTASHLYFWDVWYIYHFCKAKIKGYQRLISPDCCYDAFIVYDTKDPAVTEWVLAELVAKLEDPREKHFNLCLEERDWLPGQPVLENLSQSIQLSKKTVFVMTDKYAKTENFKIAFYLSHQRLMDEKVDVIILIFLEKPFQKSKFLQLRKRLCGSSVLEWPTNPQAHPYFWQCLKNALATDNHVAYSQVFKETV
Summary of the method: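 HEK293-Blue-hTLR7 cells (NF-κB/AP-1-driven SEAP reporter) were stimulated with R848 alongside serially diluted compound at 1% final DMSO for 20 h at 37 °C. Supernatant SEAP was then developed with QUANTI-Blue for 2 h at 37 °C and absorbance read at 620–655 nm; antagonism is measured as reduced reporter signal.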

Row | SMILES | pIC50
1 | Cc1cc(N2CCN(C[C@H]3CN(c4ccc(C#N)c5ncccc45)C[C@@H](C)O3)CC2)nc(N2CC(N)C(F)(F)C2)n1 (stereo partly drawn) [Example 63, 5-[(2S,6R)-2-[[4-[2-(4-amino-3,3-difluoro-pyrrolidin-1-yl)-6-methyl-pyrimidin-4-yl]piperazin-1-yl]methyl]-6-methyl-morpholin-4-yl]quinoline-8-carbonitrile] | 7.27
2 | C[C@@H]1CN(c2ccc(C#N)c3ncccc23)C[C@H](CN2CCN(c3nc(N4CCNCC4)ncc3F)CC2)O1 [Example 45, 5-[(2S,6R)-2-[[4-(5-fluoro-2-piperazin-1-yl-pyrimidin-4-yl)piperazin-1-yl]methyl]-6-methyl-morpholin-4-yl]quinoline-8-carbonitrile] | 7.82
3 | C[C@@H]1CN(c2ccc(C#N)c3ncccc23)C[C@H](CN2CCN(c3ncc(C#N)c(N4CCNCC4)n3)CC2)O1 [Example 51, 5-[(2S,6R)-2-[[4-(5-cyano-4-piperazin-1-yl-pyrimidin-2-yl)piperazin-1-yl]methyl]-6-methyl-morpholin-4-yl]quinoline-8-carbonitrile] | 7.55
4 | C[C@@H]1CN(c2ccc(C#N)c3ncccc23)C[C@H](CN2CCN(c3cccc(NC4CNC4)n3)CC2)O1 [Example 38] | 7.80
5 | C[C@@H]1CN(c2ccc(C#N)c3ncccc23)C[C@H](CN2CCN(c3cc(N4CCNCC4)ncn3)CC2)O1 [Example 18, 5-[(2R,6S)-2-methyl-6-[[4-(6-piperazin-1-ylpyrimidin-4-yl)piperazin-1-yl]methyl]morpholin-4-yl]quinoline-8-carbonitrile] | 7.96
6 | C[C@@H]1CN(c2ccc(C#N)c3ncccc23)C[C@H](CN2CCN(c3ccnc(N4CCN(C(=O)[C@@H]5CCCN5)CC4)n3)CC2)O1 [Example 31, 5-[(2R,6S)-2-methyl-6-[[4-[2-[4-[(2S)-pyrrolidine-2-carbonyl]piperazin-1-yl]pyrimidin-4-yl]piperazin-1-yl]methyl]morpholin-4-yl]quinoline-8-carbonitrile] | 7.74
7 | C[C@@H]1CN(c2ccc(C#N)c3ncccc23)C[C@H](CN2CCN(c3ccnc(N4CCN[C@@H](CO)C4)n3)CC2)O1 [Example 29, 5-[(2S,6R)-2-[[4-[2-[(3R)-3-(hydroxymethyl)piperazin-1-yl]pyrimidin-4-yl]piperazin-1-yl]methyl]-6-methyl-morpholin-4-yl]quinoline-8-carbonitrile] | 7.80
8 | C[C@@H]1CN(c2ccc(C#N)c3ncccc23)C[C@H](CN2CCN(c3cccc(N4CCC(N)CC4)n3)CC2)O1 [Example 36, 5-[(2S,6R)-2-[[4-[6-(4-amino-1-piperidyl)-2-pyridyl]piperazin-1-yl]methyl]-6-methyl-morpholin-4-yl]quinoline-8-carbonitrile] | 7.55
9 | Cc1cc(N2CCN(C[C@H]3CN(c4ccc(C#N)c5nccnc45)C[C@@H](C)O3)CC2)nc(N2CCNCC2)n1 [Example 64, 8-[(2R,6S)-2-methyl-6-[[4-(6-methyl-2-piperazin-1-yl-pyrimidin-4-yl)piperazin-1-yl]methyl]morpholin-4-yl]quinoxaline-5-carbonitrile] | 8.30
10 | CO[C@H]1CN(c2nccc(N3CCN(C[C@H]4CN(c5ccc(C#N)c6ncccc56)C[C@@H](C)O4)CC3)n2)CC1N (stereo in doubt) [Example 53, 5-[(2S,6R)-2-[[4-[2-[(3S,4S)-3-amino-4-methoxy-pyrrolidin-1-yl]pyrimidin-4-yl]piperazin-1-yl]methyl]-6-methyl-morpholin-4-yl]quinoline-8-carbonitrile] | 8.10
11 | C[C@@H]1CN(c2cc(=O)n(C)c3ncccc23)C[C@H](CN2CC(c3ccc(N4CCNCC4)cc3)C2)O1 [Example 171, 1-methyl-4-[(2R,6S)-2-methyl-6-[[3-(4-piperazin-1-ylphenyl)azetidin-1-yl]methyl]morpholin-4-yl]-1,8-naphthyridin-2-one] | 7.42
12 | C[C@@H]1CN(c2ccc(C#N)c3ncccc23)C[C@H](CN2CCN(c3ccc(N4CC(N)C(F)C4)nc3)CC2)O1 (stereo partly drawn) [Example 44, 5-[(2S,6R)-2-[[4-[6-(3-amino-4-fluoro-pyrrolidin-1-yl)-3-pyridyl]piperazin-1-yl]methyl]-6-methyl-morpholin-4-yl]quinoline-8-carbonitrile] | 7.55
13 | Cc1cc(N2CCN(C[C@H]3CN(c4ccc(C#N)c5ncccc45)C[C@@H](C)O3)CC2)nc(N2CCNCC(O)C2)n1 (stereo partly drawn) [Example 66, 5-[(2S,6R)-2-[[4-[2-(6-hydroxy-1,4-diazepan-1-yl)-6-methyl-pyrimidin-4-yl]piperazin-1-yl]methyl]-6-methyl-morpholin-4-yl]quinoline-8-carbonitrile] | 7.77
14 | C[C@@H]1CN(c2ccc(C#N)c3ncccc23)C[C@H](CN2CCN(c3nc(N4CCNCC4)nc4ccccc34)CC2)O1 [Example 49, 5-[(2R,6S)-2-methyl-6-[[4-(2-piperazin-1-ylquinazolin-4-yl)piperazin-1-yl]methyl]morpholin-4-yl]quinoline-8-carbonitrile] | 7.54
15 | C[C@@H]1CN(c2ccc(C#N)n3ncc(F)c23)C[C@H](CN2CCN(c3ccc([C@@H]4CNCCO4)cc3)CC2)O1 [Example 177, 3-fluoro-4-[(2R,6S)-2-methyl-6-[[4-[4-[(2R)-morpholin-2-yl]phenyl]piperazin-1-yl]methyl]morpholin-4-yl]pyrazolo[1,5-a]pyridine-7-carbonitrile] | 7.80
16 | Cc1cc(N2CCN(C[C@H]3CN(c4ccc(C#N)c5ncccc45)C[C@@H](C)O3)CC2)nc(N2CC3(CNCCO3)C2)n1 [Example 61, 5-[(2R,6S)-2-methyl-6-[[4-[6-methyl-2-(5-oxa-2,8-diazaspiro[3.5]nonan-2-yl)pyrimidin-4-yl]piperazin-1-yl]methyl]morpholin-4-yl]quinoline-8-carbonitrile] | 8.10
17 | C[C@@H]1CN(c2ccc(C#N)c3ncccc23)C[C@H](CN2CCN(c3cncc(N4CCNCC4)c3)CC2)O1 [Example 7, 5-[(2R,6S)-2-methyl-6-[[4-(5-piperazin-1-yl-3-pyridyl)piperazin-1-yl]methyl]morpholin-4-yl]quinoline-8-carbonitrile] | 7.47
18 | CO[C@H]1CN(c2cccc(N3CCN(C[C@H]4CN(c5ccc(C#N)c6ncccc56)C[C@@H](C)O4)CC3)n2)C[C@H]1N [Example 42, 5-[(2S,6R)-2-[[4-[6-[(3R,4S)-3-amino-4-methoxy-pyrrolidin-1-yl]-2-pyridyl]piperazin-1-yl]methyl]-6-methyl-morpholin-4-yl]quinoline-8-carbonitrile] | 7.64
19 | C[C@@H]1CN(c2ccc(C#N)c3ncccc23)C[C@H](CN2CCN(c3cccc(C4CNCCO4)c3)CC2)O1 (stereo partly drawn) [Example 62, 5-[(2R,6S)-2-methyl-6-[[4-(3-morpholin-2-ylphenyl)piperazin-1-yl]methyl]-morpholin-4-yl]quinoline-8-carbonitrile] | 7.74
20 | C[C@@H]1CN(c2ccc(C#N)c3ncccc23)C[C@H](CN2CCN(c3ccnc(N4CCN(C)CC4)n3)CC2)O1 [Example 22, 5-((2R,6S)-2-methyl-6-((4-(2-(4-methylpiperazin-1-yl)pyrimidin-4-yl)piperazin-1-yl)methyl)morpholino)quinoline-8-carbonitrile] | 8.00
21 | COC1CN(c2ccc(C3CN(C[C@H]4CN(c5cc(=O)n(C)c6ncccc56)C[C@@H](C)O4)C3)cc2)C[C@H]1N (stereo in doubt) [Example 172, 4-[(2S,6R)-2-[[3-[4-[(3R,4R)-3-amino-4-methoxy-pyrrolidin-1-yl]phenyl]azetidin-1-yl]methyl]-6-methyl-morpholin-4-yl]-1-methyl-1,8-naphthyridin-2-one] | 7.39
22 | C[C@@H]1CN(c2ccc(C#N)c3ncccc23)C[C@H](CN2CCN(c3cccc(N4CCNCC(O)C4)n3)CC2)O1 (stereo partly drawn) [Example 41, 5-[(2S,6R)-2-[[4-[6-(6-hydroxy-1,4-diazepan-1-yl)-2-pyridyl]piperazin-1-yl]methyl]-6-methyl-morpholin-4-yl]quinoline-8-carbonitrile] | 7.09
23 | C[C@@H]1CN(c2ccc(C#N)c3ncccc23)C[C@H](CN2CCN(c3cc(N4CCNCC4)ccn3)CC2)O1 [Example 9, 5-[(2R,6S)-2-methyl-6-[[4-(4-piperazin-1-yl-2-pyridyl)piperazin-1-yl]methyl]morpholin-4-yl]quinoline-8-carbonitrile] | 7.72
